Reference: US20250332182A1, “Galactooligosaccharides for improving immune response” (N.V. Nutricia, priority 2021, published 2025)

Experiments:
T1ST2+Th2 cells = conditions: spleen; DON in the diet
[1] = system: vaccine-specific immunoglobulin; conditions: vaccinated mice; DON in the diet
CD25+ FoxP3+ Treg cells = conditions: spleen of vaccinated mice; DON in the diet
CXCR3+Th1 cells = conditions: spleen; DON in the diet
[2] = system: IL-4, IL-6, IL-13, TNF-α and MIP-2; conditions: re-stimulated splenocytes of vaccinated mice; dietary DON

CC1=C[C@H]2O[C@@H]3[C@H](O)C[C@](C)([C@@]2(CO)[C@H](O)C1=O)[C@]31CO1 [DON, deoxynivalenol]
effect on T1ST2+Th2 cells (T1ST2+Th2 cells): No significant effect
vaccine-specific immunoglobulin production [1]: reduced
percentage of CD25+ FoxP3+ Treg cells (CD25+ FoxP3+ Treg cells): not significantly affected
effect on CXCR3+Th1 cells (CXCR3+Th1 cells): No significant effect
concentrations of IL-4, IL-6, IL-13, TNF-α and MIP-2 in cell supernatants [2]: No significant effect
